Results reported in ChEMBL document CHEMBL3286294, “Buthionine sulfoximine diverts the melanogenesis pathway toward the production of more soluble and degradable pigments” (Bioorg Med Chem Lett, 2014).
The source made the active and inactive calls. The rule behind the calls is not given here.

What was measured:
[1] = target: T1, Tyrosinase (Agaricus bisporus) (UniProt O42713); experiment: Induction of pheomelanogenesis assessed as mushroom tyrosinase-mediated simulation of pheomelanogenesis by measuring oxidation of L-DOPA at 4.5 to 184.4 mM after 48 hrs by Vis-spectrophotometer analysis in presence of 0.65 to 3.2 mM of glutathione
T1 sequence (whole entry): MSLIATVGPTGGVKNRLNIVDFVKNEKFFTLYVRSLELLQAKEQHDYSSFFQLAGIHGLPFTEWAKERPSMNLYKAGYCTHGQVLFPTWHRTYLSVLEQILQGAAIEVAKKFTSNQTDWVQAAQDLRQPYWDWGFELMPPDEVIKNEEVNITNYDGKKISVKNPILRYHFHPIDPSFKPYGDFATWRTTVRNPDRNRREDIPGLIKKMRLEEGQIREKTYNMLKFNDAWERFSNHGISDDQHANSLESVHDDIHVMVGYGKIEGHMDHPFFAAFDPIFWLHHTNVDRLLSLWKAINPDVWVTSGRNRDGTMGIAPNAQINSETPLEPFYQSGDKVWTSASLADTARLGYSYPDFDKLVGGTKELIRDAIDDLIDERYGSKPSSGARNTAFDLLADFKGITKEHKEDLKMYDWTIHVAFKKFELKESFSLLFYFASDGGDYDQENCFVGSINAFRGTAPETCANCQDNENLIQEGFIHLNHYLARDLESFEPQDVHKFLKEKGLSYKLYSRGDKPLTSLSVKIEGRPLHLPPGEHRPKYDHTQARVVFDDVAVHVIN

[2] = target: T1, Tyrosinase (Agaricus bisporus); experiment: Induction of eumelanogenesis assessed as mushroom tyrosinase-mediated simulation of eumelanogenesis by measuring oxidation of L-DOPA at 4.5 to 184.4 mM after 48 hrs by Vis-spectrophotometer analysis in absence of glutathione
[3] = target: T1, Tyrosinase (Agaricus bisporus); experiment: Induction of pheomelanogenesis assessed as mushroom tyrosinase-mediated simulation of pheomelanogenesis by measuring oxidation of L-DOPA at 4.5 to 184.4 mM after 48 hrs by Vis-spectrophotometer analysis in presence of 0.65 to 3.2 mM of glutathione and H2O2
[4] = target: T1, Tyrosinase (Agaricus bisporus); experiment: Inhibition of mushroom tyrosinase-mediated simulation of pheomelanogenesis assessed as oxidation of L-DOPA at 4.5 to 184.4 mM after 48 hrs by Vis-spectrophotometer analysis in presence of 16.3 to 81.3 mM of glutathione
[5] = target: T1, Tyrosinase (Agaricus bisporus); experiment: Induction of eumelanogenesis assessed as mushroom tyrosinase-mediated simulation of eumelanogenesis by measuring oxidation of L-DOPA at 4.5 to 184.4 mM after 48 hrs by Vis-spectrophotometer analysis in absence of glutathione and presence of H2O2

Activity [1]: Active
Activity [2]: Active
Activity [3]: Active
inhibition [4]: Active
Activity [5]: Active
SMILES: CCCCS(=N)(=O)CCC(N)C(=O)O (racemic)
